Measured values published in patent publication US7662576B2, “Method for identifying ester coolers” (International Flavors & Fragrances Inc., priority 2007, dated 2010).
Entries after “also recorded” stand apart in the source; their conditions may differ.

Experiments:
[1] = cited from earlier work; for Relative Cooling Strengths: compared to (−)-Menthol at 100, source Erman (2003); for relative cooling strength: with respect to WS-3 at 10.0, U.S. Patent Application No. 20050265930
[2] = system: TRPA1; details: literature; cited from earlier work
[3] = molecular target: TRPM8 (Homo sapiens, UniProt Q7Z2W7); assay: TRPM8 FLIPR analysis (calcium, Fluo4NW); format: cell-based; details: for response of TRPM8 channel / comparison of TRPM8 and TRPA1 response: FLIPR; for response of TRPM8 channel: result in words; for temporal response: FIG. 2; for comparison of TRPM8 and TRPA1 response: TRPM8 versus TRPA1
Chain of TRPM8 (Homo sapiens, UniProt Q7Z2W7) (Q7Z2W7 whole entry, species assumed): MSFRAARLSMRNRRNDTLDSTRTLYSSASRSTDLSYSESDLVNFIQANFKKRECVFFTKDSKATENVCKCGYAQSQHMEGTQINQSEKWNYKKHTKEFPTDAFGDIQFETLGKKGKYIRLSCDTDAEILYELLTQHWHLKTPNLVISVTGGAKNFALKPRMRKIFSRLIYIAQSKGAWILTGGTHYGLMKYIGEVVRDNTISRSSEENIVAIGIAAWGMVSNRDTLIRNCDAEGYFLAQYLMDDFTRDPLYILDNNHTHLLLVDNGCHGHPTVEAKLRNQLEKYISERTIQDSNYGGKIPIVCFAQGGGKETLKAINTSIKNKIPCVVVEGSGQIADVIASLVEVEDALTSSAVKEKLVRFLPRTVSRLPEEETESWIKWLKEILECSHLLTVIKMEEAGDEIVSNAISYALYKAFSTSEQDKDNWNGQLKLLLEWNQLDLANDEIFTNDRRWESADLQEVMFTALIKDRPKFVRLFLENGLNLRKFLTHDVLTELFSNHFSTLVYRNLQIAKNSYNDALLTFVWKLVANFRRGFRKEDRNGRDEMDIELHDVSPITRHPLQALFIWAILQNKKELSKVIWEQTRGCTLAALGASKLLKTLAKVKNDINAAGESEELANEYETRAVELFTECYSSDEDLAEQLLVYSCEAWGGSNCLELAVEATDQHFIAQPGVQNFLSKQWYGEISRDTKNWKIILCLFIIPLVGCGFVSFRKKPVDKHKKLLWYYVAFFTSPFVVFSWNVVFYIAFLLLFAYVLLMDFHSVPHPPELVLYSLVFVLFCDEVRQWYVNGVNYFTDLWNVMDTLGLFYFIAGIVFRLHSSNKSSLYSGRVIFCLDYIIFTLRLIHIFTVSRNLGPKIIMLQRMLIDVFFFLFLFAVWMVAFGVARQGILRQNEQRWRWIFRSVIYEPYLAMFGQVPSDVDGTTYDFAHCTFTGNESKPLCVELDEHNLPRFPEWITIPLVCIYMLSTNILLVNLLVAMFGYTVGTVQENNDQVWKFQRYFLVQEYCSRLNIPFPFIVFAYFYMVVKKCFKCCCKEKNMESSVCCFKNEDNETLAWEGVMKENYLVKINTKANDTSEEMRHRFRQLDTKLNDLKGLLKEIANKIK
Procedure: (§1) Materials. Fluo4NW solution was prepared by solubilizing one Fluo4NW bottle (Molecular Probes #F36206, component A) in 16 mL of Tyrode buffer (pH 7.4, 130 mM NaCl, 5 mM KCl, 2 mM CaCl2, 1 mM MgCl2, 5 mM NaHCO3, 20 mM HEPES). To the resulting solution was then added 100 μL of water-soluble probenecid (Molecular Probes #F36206, component B).
(§2) Cell Preparation. Cells were trypsinized and 10,000 cells were dispensed per well in poly-lysine-coated, black, clear-bottom 384-well plates (35 μL/well in DMEM without antibiotics). Cells were incubated for 24 hours at 37° C. in 5% CO2. The medium was completely eliminated and 20 (TRPA1) or 40 (TRPM8) μL/well of Fluo4NW solution was added to the plates. Cells were incubated for 1 hour at room temperature protected from light. Two addition kinetic measurements were recorded on the instrument for 7.5 (TRPA1) or 15 (TRPM8) minutes.

[4] = molecular target: TRPM8 (Mus musculus, UniProt Q8R4D5); details: Behrendt et al. (2004); cited from earlier work
Chain of TRPM8 (Mus musculus, UniProt Q8R4D5) (Q8R4D5 whole entry): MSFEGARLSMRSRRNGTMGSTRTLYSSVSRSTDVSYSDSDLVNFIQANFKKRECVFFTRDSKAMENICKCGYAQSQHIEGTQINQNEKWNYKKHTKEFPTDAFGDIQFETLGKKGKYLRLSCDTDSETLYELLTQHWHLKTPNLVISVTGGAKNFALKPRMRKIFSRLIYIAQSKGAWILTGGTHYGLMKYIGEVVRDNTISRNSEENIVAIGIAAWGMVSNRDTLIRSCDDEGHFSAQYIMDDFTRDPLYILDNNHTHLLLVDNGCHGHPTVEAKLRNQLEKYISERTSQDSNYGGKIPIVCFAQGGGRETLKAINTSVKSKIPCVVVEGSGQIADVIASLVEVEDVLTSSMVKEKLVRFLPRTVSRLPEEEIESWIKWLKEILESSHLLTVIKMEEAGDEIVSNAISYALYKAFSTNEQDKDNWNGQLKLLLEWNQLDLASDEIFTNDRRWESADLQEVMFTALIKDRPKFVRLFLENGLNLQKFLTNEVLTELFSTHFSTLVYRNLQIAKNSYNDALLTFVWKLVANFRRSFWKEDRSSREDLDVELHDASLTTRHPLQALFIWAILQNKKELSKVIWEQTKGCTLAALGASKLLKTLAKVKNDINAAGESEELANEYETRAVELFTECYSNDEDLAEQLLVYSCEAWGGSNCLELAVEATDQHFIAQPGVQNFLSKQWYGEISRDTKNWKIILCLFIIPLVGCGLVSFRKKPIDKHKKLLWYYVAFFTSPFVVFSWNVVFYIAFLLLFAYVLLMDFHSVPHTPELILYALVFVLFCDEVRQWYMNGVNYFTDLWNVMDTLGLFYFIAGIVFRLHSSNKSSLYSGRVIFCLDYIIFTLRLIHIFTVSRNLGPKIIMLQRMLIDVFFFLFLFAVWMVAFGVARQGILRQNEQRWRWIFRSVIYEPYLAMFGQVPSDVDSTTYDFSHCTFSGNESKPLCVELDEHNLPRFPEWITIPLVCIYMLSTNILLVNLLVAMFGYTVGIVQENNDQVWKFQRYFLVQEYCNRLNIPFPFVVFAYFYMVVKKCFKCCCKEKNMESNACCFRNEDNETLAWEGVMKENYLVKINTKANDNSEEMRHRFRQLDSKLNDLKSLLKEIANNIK

[5] = molecular target: T1, human TRPA1 (Homo sapiens, UniProt O75762); assay: TRPA1 FLIPR analysis (calcium, Fluo4NW) in TREX FLP-IN HEK 293 cells expressing TRPA1; format: cell-based; details: result in words
T1 construct: expressed in transfected cells
T1 sequence (O75762 whole entry): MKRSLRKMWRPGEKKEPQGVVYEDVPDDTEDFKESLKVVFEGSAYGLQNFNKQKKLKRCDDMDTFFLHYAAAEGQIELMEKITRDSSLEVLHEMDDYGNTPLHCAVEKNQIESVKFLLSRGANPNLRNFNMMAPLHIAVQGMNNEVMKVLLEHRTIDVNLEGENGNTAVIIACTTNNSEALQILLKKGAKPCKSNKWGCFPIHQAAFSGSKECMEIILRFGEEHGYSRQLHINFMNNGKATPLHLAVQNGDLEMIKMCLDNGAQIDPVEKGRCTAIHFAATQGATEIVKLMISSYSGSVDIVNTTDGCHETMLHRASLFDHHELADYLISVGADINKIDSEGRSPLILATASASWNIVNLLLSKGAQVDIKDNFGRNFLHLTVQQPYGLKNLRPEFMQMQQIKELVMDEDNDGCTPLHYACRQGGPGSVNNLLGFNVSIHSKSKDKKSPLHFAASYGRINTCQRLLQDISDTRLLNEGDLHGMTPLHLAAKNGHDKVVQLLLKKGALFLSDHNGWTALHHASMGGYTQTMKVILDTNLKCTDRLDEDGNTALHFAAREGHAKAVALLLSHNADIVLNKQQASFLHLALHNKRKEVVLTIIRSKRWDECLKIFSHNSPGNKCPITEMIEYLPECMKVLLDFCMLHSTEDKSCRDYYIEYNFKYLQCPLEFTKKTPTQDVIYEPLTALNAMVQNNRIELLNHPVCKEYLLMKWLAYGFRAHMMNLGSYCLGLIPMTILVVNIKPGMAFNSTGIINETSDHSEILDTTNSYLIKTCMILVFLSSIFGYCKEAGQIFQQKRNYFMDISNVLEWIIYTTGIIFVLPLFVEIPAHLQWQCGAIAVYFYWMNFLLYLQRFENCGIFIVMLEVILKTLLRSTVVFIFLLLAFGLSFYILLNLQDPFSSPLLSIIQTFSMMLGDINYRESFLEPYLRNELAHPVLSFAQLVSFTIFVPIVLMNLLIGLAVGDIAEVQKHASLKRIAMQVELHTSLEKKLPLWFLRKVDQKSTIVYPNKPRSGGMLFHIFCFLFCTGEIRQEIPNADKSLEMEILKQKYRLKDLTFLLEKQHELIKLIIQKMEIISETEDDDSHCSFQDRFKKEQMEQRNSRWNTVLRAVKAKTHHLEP
Procedure: Preferred assays to measure TRPA1 channel activity are cell-based assays that utilize cells loaded with ion or voltage-sensitive dyes to report TRPA1 activation. By way of illustration, an inducible TRPA1 cell line was created by stably introducing TRPA1 into TREX-FLPN cells (INVITROGEN). […] In this assay, cells were incubated with a suitable flouroscent dye. […] After obtaining a baseline, various cooling compounds were added and fluorescence measured for several minutes.
as §1, §2
NotI and XhoI restriction sites were also added to the ends to facilitate cloning into expression vectors.
The TRPA1 cDNA was cloned into two expression vectors, pcDNA5/FRT and pcDNA5/FRT/TO (INVITROGEN), using the NotI and XhoI sites. The former vector allows for constitutive expression in mammalian cells the latter for inducible expression in same. Restriction digests, ligations and transformations were performed using routine molecular biological techniques, wherein restriction enzymes were obtained from New England Biolabs, a rapid ligation kit from Roche and competent cells (Max Efficiency DH5 t1 phage-resistant) from INVITROGEN. […]

[6] = molecular target: mouse TRPA1 channel (Mus musculus, UniProt Q8BLA8); details: literature; cited from earlier work
Chain of mouse TRPA1 channel (Q8BLA8 whole entry): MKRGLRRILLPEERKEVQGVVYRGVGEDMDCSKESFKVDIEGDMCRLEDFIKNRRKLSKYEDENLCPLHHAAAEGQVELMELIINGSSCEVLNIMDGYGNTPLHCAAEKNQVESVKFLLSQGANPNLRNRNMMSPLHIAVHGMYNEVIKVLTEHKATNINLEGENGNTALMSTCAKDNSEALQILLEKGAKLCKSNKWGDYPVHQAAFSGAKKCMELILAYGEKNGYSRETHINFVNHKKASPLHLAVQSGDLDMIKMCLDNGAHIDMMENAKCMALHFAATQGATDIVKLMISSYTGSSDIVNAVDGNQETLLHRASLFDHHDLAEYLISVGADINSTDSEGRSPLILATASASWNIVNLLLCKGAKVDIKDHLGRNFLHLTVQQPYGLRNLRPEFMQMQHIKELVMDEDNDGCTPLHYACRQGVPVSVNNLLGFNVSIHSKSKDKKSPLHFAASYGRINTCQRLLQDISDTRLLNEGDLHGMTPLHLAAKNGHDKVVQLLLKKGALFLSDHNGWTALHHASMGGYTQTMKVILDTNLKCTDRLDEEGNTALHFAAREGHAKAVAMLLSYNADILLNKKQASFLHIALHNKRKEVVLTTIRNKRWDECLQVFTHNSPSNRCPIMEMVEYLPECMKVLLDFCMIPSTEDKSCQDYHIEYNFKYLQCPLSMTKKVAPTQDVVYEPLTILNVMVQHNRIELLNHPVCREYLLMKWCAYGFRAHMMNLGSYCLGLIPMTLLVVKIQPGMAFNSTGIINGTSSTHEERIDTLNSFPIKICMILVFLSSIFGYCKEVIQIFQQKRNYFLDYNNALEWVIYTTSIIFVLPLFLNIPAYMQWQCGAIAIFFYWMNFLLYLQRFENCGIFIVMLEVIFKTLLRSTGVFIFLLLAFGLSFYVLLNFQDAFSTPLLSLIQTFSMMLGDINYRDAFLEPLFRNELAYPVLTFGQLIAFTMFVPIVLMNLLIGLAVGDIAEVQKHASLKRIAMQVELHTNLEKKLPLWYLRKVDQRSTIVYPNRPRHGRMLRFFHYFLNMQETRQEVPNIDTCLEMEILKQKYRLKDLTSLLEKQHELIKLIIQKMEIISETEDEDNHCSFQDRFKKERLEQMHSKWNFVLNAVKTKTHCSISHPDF

1-glyceryl p-menthane-3-carboxylate [WS-30]
Relative Cooling Strengths [1]: 22.5
relative cooling strength [1]: about 1.5

CC(C)[C@@H]1CC[C@@H](C)C[C@H]1OCC(O)CO (mixture of isomers) [(2RS)-3-1-menthoxy)propane-1,2-diol]
Relative Cooling Strengths [1]: 22.5

CC1CCC(C(C)C)C(O)C1 (single isomer, unassigned; (+)) [(+)-Menthol]
Relative Cooling Strengths [1]: 27

CC1CCC(C(C)C)C(O)C1 (single isomer, unassigned; (-)) [(−)-Menthol]
Relative Cooling Strengths [1]: 100

CC1CCC(C(C)C)C(O)C1 (single isomer, unassigned; (-)) [(−)-Neomenthol]
Relative Cooling Strengths [1]: 3

CS(=O)(=O)SCCN [(2-aminoethyl)methanethiosulfonate]
activation of TRPA1 [2]: bind and activate TRPA1

CC(C)[C@@H]1CC[C@@H](C)C[C@H]1OC[C@H](O)CO [(2R)-3-1-menthoxy)propane-1,2-diol]
Relative Cooling Strengths [1]: 15.8

CC(C)[C@@H]1CC[C@@H](C)C[C@H]1OC[C@@H](O)CO [(2S)-3-1-menthoxy)propane-1,2-diol]
Relative Cooling Strengths [1]: 39.5

CC(C)[C@@H]1CC[C@H](C)C[C@H]1O [(+)-Isomenthol]
Relative Cooling Strengths [1]: 11

CC(C)[C@@H]1CC[C@@H](C)C[C@@H]1O [(+)-Neomenthol]
Relative Cooling Strengths [1]: 32

CC(C)[C@H]1CC[C@@H](C)C[C@@H]1O [(−)-Isomenthol]
Relative Cooling Strengths [1]: 3

CC(C)[C@@H]1CC[C@@H](C)C[C@H]1[O+](C)C(=O)CCCC(=O)O [Cooler 2]
response of TRPM8 channel [3]: did not respond well

CC1CCC(C(C)C)C(OC(=O)C(C)O)C1 (stereo not shown) [Frescolat MGA, menthyl lactate]
Relative Cooling Strengths [1]: 41

CC(C)[C@@H]1CC[C@@H](C)C[C@H]1O [Menthol]
temporal response ([3]; TRPM8 FLIPR): quick response with deterioration over time

CC1CCC(C(C)C)C(OC(=O)C(C)O)C1 (stereo not shown) [Menthyl Lactate]
temporal response ([3]; TRPM8 FLIPR): quick response with a quick loss of signal
Emax ([3]; TRPM8 FLIPR, read-out: response relative to the maximal response of amide coolers): ~50%
relative cooling strength [1]: about 2.9
response relative to the level of menthol [4]: 50%

CNC(=O)C1C(C)CCCC1(C)C (stereo not shown) [N,2,2,6-Tetramethylcyclohexane-1-carboxamide]
relative cooling strength [1]: about 1.0

CC1CCC(C(C)(C)O)C(O)C1 (stereo not shown) [PMD 38, p-menthane-3,8-diol]
Relative Cooling Strengths [1]: 11

CC(=O)CC(=O)OC1CC(C)CCC1C(C)C (stereo not shown) [Ultracool 7]
response of TRPM8 channel [3]: did not respond well; also recorded: no response
response of TRPA1 [5]: responded to a wide range of concentrations

CCNC(=O)C1CC(C)CCC1C(C)C (stereo not shown) [WS-3, N-ethyl-p-menthane-3-carboxamide]
comparison of TRPM8 and TRPA1 response [3]: TRPM8 responding better
response of TRPM8 channel [3]: responded
response of TRPA1 [5]: responded
Relative Cooling Strengths [1]: 150
relative cooling strength [1]: 10.0

CC1CCC(C(C)C)C(C(=O)OCCO)C1 (stereo not shown) [WS-4, Ethyleneglycol p-menthane-3-carboxylate]
Relative Cooling Strengths [1]: 23

COc1ccc(NC(=O)C2CC(C)CCC2C(C)C)cc1 (stereo not shown) [WS-12, N-(4-methoxyphenyl)-p-menthane-3-carboxamide]
Relative Cooling Strengths [1]: 150

CC1CCC(C(C)C)C(C(=O)NC(C)(C)C)C1 (stereo not shown) [WS-14, N-t-butyl-p-menthane-3-carboxamide]
Relative Cooling Strengths [1]: 75
relative cooling strength [1]: about 5.0

CNC(=O)C(C)(C(C)C)C(C)C [WS-23, 2-Isopropyl-N,2,3-trimethylbutyramide]
Relative Cooling Strengths [1]: 75
relative cooling strength [1]: about 5.0

O=CC=Cc1ccccc1 [cinnamaldehyde]
activation of mouse TRPA1 channel [6]: activated

C=CCc1ccc(O)c(OC)c1 [eugenol]
activation of mouse TRPA1 channel [6]: activated

CCCCC[C@H](O)CC(=O)CCc1ccc(O)c(OC)c1 [gingerol]
activation of mouse TRPA1 channel [6]: activated

NC(=O)CI [iodoacetamide]
activation of TRPA1 [2]: bind and activate TRPA1

COC(=O)c1ccccc1O [methyl salicylate]
activation of mouse TRPA1 channel [6]: activated

CC(C)[C@@H]1CC[C@@H](C)C[C@H]1OC(=O)CCCC(=O)O [monomenthyl glutarate]
relative cooling strength [1]: about 3.5

C=CCN=C=S [mustard oil, allyl isothiocyanate]
activation of TRPA1 [2]: activates TRPA1

(+)-Neoisomenthol
Relative Cooling Strengths [1]: 3

(−)-Neoisomenthol
Relative Cooling Strengths [1]: 13

(−)-isopulegol [Coolact P]
Relative Cooling Strengths [1]: 25

Ethyl 3-(p-menthane-3-carboxamido)acetate [WS-5]
comparison of TRPM8 and TRPA1 response [3]: TRPM8 responding better
response of TRPM8 channel [3]: responded
response of TRPA1 [5]: responded
Relative Cooling Strengths [1]: 400
relative cooling strength [1]: about 16.7
